Assay results from the supplement of paper PMC10307832.

How the values were obtained:
Test in all cases: relative viability (nuclei count vs DMSO), 5 days (fraction); higher = more cells survive
[1] = compound: CS(=O)(=O)N1CCN(Cc2cc3nc(-c4cccc5[nH]ncc45)nc(N4CCOCC4)c3s2)CC1 [Pictilisib] + N=C(N)NC(=N)NCCc1ccccc1 [Phenformin] (partner 250 µM)
In short: (§1)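 Each reported value is a median over duplicate plates. It expresses relative viability: treated-well nuclei count divided by vehicle-well nuclei count. Lung cancer cell lines in 1536-well plates were dosed by pin tool a day after seeding, alone with one drug or with a fixed anchor-drug dose plus five library-drug doses (not always all listed) in √10 steps, and nuclei were counted after 5 days.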

[2] = compound: CS(=O)(=O)N1CCN(Cc2cc3nc(-c4cccc5[nH]ncc45)nc(N4CCOCC4)c3s2)CC1 [Pictilisib] + C[C@@H](Oc1cc(-c2cnn(C3CCNCC3)c2)cnc1N)c1c(Cl)ccc(F)c1Cl [Crizotinib] (partner 1 µM)
In short: as §1

[3] = compound: CS(=O)(=O)N1CCN(Cc2cc3nc(-c4cccc5[nH]ncc45)nc(N4CCOCC4)c3s2)CC1 [Pictilisib] + COc1cccc2cc(-c3nc([C@H]4CC[C@H](C(=O)O)CC4)n4ncnc(N)c34)[nH]c12 [OSI-027] (partner 0.5 µM)
In short: as §1

[4] = compound: NC1(c2ccc(-c3nc4ccn5c(=O)[nH]nc5c4cc3-c3ccccc3)cc2)CCC1 [MK-2206] + O=C(CCCCCCC(=O)Nc1ccccc1)NO [Vorinostat] (partner 1 µM)
In short: as §1

[5] = compound: CS(=O)(=O)N1CCN(Cc2cc3nc(-c4cccc5[nH]ncc45)nc(N4CCOCC4)c3s2)CC1 [Pictilisib] + Nc1ncn([C@H]2C[C@H](O)[C@@H](CO)O2)c(=O)n1 [Decitabine] (partner 2 µM)
In short: as §1

UMC-11
relative viability ([1]; first compound 0.02 µM): 0.331 | relative viability ([1]; first compound 0.06325 µM): 0.346 | relative viability ([1]; first compound 0.6325 µM): 0.312 | relative viability ([1]; first compound 2 µM): 0.315 | relative viability ([2]; first compound 0.02 µM): 0.633 | relative viability ([2]; first compound 0.06325 µM): 0.887 | relative viability ([2]; first compound 0.6325 µM): 0.733 | relative viability ([2]; first compound 2 µM): 0.58 | relative viability ([3]; first compound 0.02 µM): 0.538 | relative viability ([3]; first compound 0.06325 µM): 0.526 | relative viability ([3]; first compound 0.6325 µM): 0.48 | relative viability ([3]; first compound 2 µM): 0.383 | relative viability ([4]; first compound 0.01 µM): 0.388 | relative viability ([4]; first compound 0.03162 µM): 0.365 | relative viability ([4]; first compound 0.3162 µM): 0.416 | relative viability ([4]; first compound 1 µM): 0.379 | relative viability ([5]; first compound 0.02 µM): 0.644 | relative viability ([5]; first compound 0.06325 µM): 0.724 | relative viability ([5]; first compound 0.6325 µM): 0.566 | relative viability ([5]; first compound 2 µM): 0.519
